Assay results taken from patent US8426438B2, “Heterocyclic-fused pyrazolo[4,3-c]pyridin-3-one M1 receptor positive allosteric modulators” (Merck Sharp & Dohme Corp., priority 2009, dated 2013).
pEC50: −log10 of the molar value.

Each molecule was assayed against T1, acetylcholine muscarinic M1 receptor (CHOnfat/hM1 cells) (Homo sapiens, UniProt P11229) (assay: muscarinic FLIPR intracellular calcium assay for M1 positive allosteric modulator activity (acetylcholine EC20)). Conditions: 4 min preincubation, then EC20 acetylcholine (3 nM final), read-out: IP Value (inflection point).
T1 construct: expressed in transfected cells; host or cells: CHOnfat cells (CHO, Geneticin selection)
T1 sequence (P11229 1-460): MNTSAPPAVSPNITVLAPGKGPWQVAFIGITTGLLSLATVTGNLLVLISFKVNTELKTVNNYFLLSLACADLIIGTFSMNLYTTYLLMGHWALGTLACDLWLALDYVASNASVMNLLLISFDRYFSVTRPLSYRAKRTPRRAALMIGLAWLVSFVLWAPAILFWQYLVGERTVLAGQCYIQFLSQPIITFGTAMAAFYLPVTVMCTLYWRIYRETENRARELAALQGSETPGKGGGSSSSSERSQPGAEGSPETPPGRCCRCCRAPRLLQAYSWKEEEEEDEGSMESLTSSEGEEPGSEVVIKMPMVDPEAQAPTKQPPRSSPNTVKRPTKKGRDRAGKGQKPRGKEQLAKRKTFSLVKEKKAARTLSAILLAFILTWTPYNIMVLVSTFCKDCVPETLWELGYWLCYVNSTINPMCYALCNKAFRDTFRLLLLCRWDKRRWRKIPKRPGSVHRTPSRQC
Assay type: cell-based
Method: The assay studies the effect of one or several concentrations of test compounds on basal or acetylcholine-stimulated Ca^2+ levels using FLIPR.
Compounds are prepared and subjected to a preincubation period of 4 min. Thereafter, a single EC20 concentration of acetylcholine is added to each well (3 nM final). The intracellular Ca^2+ level of each sample is measured and compared to an acetylcholine control to determine any modulatory activity.
CHOnfat/hM1, hM2, hM3 or hM4 cells are plated 24 hr before the assay at a density of 18,000 cells/well (100 up in a 384 well plate. CHOnfat/hM1 and CHOnfat/hM3 Growth Medium: 90% DMEM (Hi Glucose); 10% HI FBS; 2 mM L-glutamine; 0.1 mM NEAA; Pen-Strep; and 1 mg/ml Geneticin, are added. For M2Gqi5CHOnfat and M4Gqi5CHOnfat cells, an additional 600 μg/ml hygrornycin is added.
384 well plate, 120 μL addition plate; 96-well Whatman 2 ml Uniplate Incubator, 37° C., 5% CO2; Skatron EMBLA-384 Plate Washer; Multimek Pipetting System; Genesis Freedom 200 System; Mosquito System; Temo Nanolitre Pipetting System; and FLIPR^384 Fluorometric Imaging Plate Reader System are used.
Assay Buffer: Hanks Balanced Salt Solution, with 20 mM Hepes, 2.5 mM Probenecid (Sigma P-8761) first dissolved in 1 N NaOH, 1% Bovine Serum Albumin (Sigma A-9647). Dye Loading Buffer: Assay Buffer plus 1% Fetal Bovine Serum and Fluo-4AM/Pluronic Acid Mixture. 2 mM Fluo-4AM ester stock in DMSO (Molecular Probes F-14202) Concentration of 2 μM in buffer for a final concentration of 1 μM in Assay. 20% Pluronic Acid Solution stock, with concentration of 0.04% in Buffer, 0.02% in Assay.
65 μL of 2 mM Fluo-4AM are mixed with 130 μL of 20% Pluronic Acid. The resulting solution and 650 μL FBS is added to the assay buffer for a total volume of 65 mL. Positive Controls: 4-Br-A23187: 10 mM in DMSO; final concentration 10 μM. Acetylcholine: 10 mM in water, working stock at both 20 μM and 30 μM in assay buffer, final concentration of 10 μM. This is used to check the maximum stimulation of the CHOK1/hM1 cells. 20 μM (2×) acetylcholine is added in the preincubation part of the assay, and the 30 μM (3×) stock is added in the second part. (EC20) Acetylcholine: 10 mM in water, working stock of 9 nM (3×), and final concentration in assay is 3 nM. This is used after the preincubation with test compounds. Addition of the EC20 Acetylcholine to each well with a test compound will ascertain any modulator activity. 24 wells contain 3 nM Acetylcholine alone as a control.
Compounds are titrated in 96-well plates (columns 2-11), 100% DMSO, started at a concentration of 15 mM (150× stock concentration), and 3-fold serial dilutions using Genesis Freedom200 System. Four 96-well plates are combined into a 384-well plate using Mosquito Nanolitre Pipetting System by transferring 1 μl of serial diluted compounds to each well, and 1 mM acetylcholine (100× stock concentration) were added as a control. Using Temo, 49 μl assay buffer is added to each well of the 384-well plate right before assay.
In a 96-well Whatman 2 ml Uniplate, 9 nM Acetylcholine (3×) is pipetted into wells corresponding to the screening compounds, and into control wells. The 30 μM acetylcholine control (3×) is added into control wells, and the 3× agonist plate is transferred into a 384 well plate.
Cells are washed three times with 100 μL of buffer, leaving […] of buffer in each well. Using Multimek, 30 μL of Dye Loading Buffer is added into each well and incubated at 37° C., 5% CO2 for up to one hr.
After 60 min, the cells are washed three times with 100 μL of buffer, leaving 30 μL of buffer in each well. The cell plate, screening plate, and agonist addition plates are placed on the platform in the FLIPR and the door closed. A signal test to check background fluorescence and basal fluorescence signal is performed. Laser intensity is adjusted if necessary. […]
In the case of O=c1c2cn(Cc3ccc(-n4cccn4)cc3)c3c(c-2nn1-c1ccccc1F)C(O)CCC3 (racemic) [Example 11, (±)-2-(2-Fluorophenyl)-9-hydroxy-5-{[4-(1H-pyrazol-1-yl)phenyl]methyl}-2,5,6,7,8,9-hexahydro-3H-pyrazolo[4,3-c]quinolin-3-one], the pEC50 was 5.89.
Molecule O=c1c2cn(Cc3ccc(-n4cccn4)cc3)c3c(c-2nn1-c1ccccc1F)CCC3 [Example 8, 2-(2-Fluorophenyl)-5-{[4-(1H-pyrazol-1-yl)phenyl]methyl}-5,6,7,8-tetrahydrocyclopenta[b]pyrazolo[3,4-d]pyridine-3(2H)-one] has a pEC50 of 6.11.
Work on O=c1c2cn(Cc3ccc(-n4cccn4)cc3)c3cnccc3c-2nn1-c1ccccc1F [Example 4, 2-(2-Fluorophenyl)-5-{[4-(1H-pyrazol-1-yl)phenyl]methyl}-2,5-dihydro-3H-pyrazolo[4,3-c]-1,7-naphthyridin-3-one] yielded a pEC50 of 5.12.
For Cc1ccccc1-n1nc2c3nccnc3n(Cc3ccc(-n4cccn4)cc3)cc-2c1=O [Example 6, 2-(2-Methylphenyl)-5-{[4-(1H-pyrazol-1-yl)phenyl]methyl}-2,5-dihydro-3H-pyrazolo[3′,4′:4,5]-pyrido[2,3-b]pyrazin-3-one], the pEC50 was 6.12.
For Cc1ccccc1-n1nc2c3sccc3n(Cc3ccc(-n4cccn4)cc3)cc-2c1=O [Example 13, 2-(2-Methylphenyl)-5-{[4-(1H-pyrazol-1-yl)phenyl]methyl}-2,5-dihydro-3H-pyrazolo[3,4-d]thieno[3,2-b]pyridin-3-one], the pEC50 was 6.97.
Molecule O=c1c2cn(Cc3ccc(-n4cccn4)cc3)c3ccsc3c-2nn1-c1ccccc1F [Example 12, 2-(2-Fluorophenyl)-5-{[4-(1H-pyrazol-1-yl)phenyl]methyl}-2,5-dihydro-3H-pyrazolo[4,3-d]thieno[3,2-b]pyridin-3-one] has a pEC50 of 7.70.
O=c1c2cn(Cc3ccc(-n4cccn4)cc3)c3c(c-2nn1-c1ccccc1F)CCCC3 [Example 9, 2-(2-Fluorophenyl)-5-{[4-(1H-pyrazol-1-yl)phenyl]methyl}-2,5,6,7,8,9-hexahydro-3H-pyrazolo[3,4-d]pyridine-3(2H)-one] gave a pEC50 of 6.44.
O=c1c2cn(Cc3ccc(-n4cccn4)cc3)c3ccsc3c-2nn1-c1c(Cl)cncc1Cl [Example 15, 2-(3,5-Dichloropyridin-4-yl)-5-{[4-(1H-pyrazol-1-yl)phenyl]methyl}-2,5-dihydro-3H-pyrazolo[3,4-d]thieno[3,2-b]pyridin-3-one] gave a pEC50 of 7.19.
For O=c1c2cn(Cc3ccc(-n4cccn4)cc3)c3ncccc3c-2nn1-c1ccccc1F [Example 2, 2-(2-Fluorophenyl)-5-{[4-(1H-pyrazol-1-yl)phenyl]methyl}-2,5-dihydro-3H-pyrazolo[4,3-c]-1,8-naphthyridin-3-one], the pEC50 was 6.50.
O=c1c2cn(Cc3ccc(-n4cccn4)cc3)c3cccnc3c-2nn1-c1ccccc1F [Example 1, 2-(2-Fluorophenyl)-5-{[4-(1H-pyrazol-1-yl)phenyl]methyl}-2,5-dihydro-3H-pyrazolo[4,3-c]-1,5-naphthyridin-3-one] gave a pEC50 of 6.80.
